PMC5907308, “21st Brazilian Diabetes Society Congress” (Diabetology & Metabolic Syndrome, 2018)
Where two headings read alike, the source gives them in different places.

Columns and labels:
[1] = tested on: patient with T2DM; experiment: Case report: endogenous hyperinsulinism in T2DM; type: in vivo, human; conditions: Acarbose prescribed 2 years ago; Verapamil 80 mg/day with dietary changes
Source text: patient three diagnosed with type 2 diabetes (T2DM), using insulin for 22 years. Eight years ago, they started to present frequent episodes of symptomatic hypoglycemia, preferably in fasting periods. There was no cessation of the episodes even with the suspension of all insulin and antidiabetic drugs, which lead to an investigation with a prolonged fasting test (Table 1). The test confirmed endogenous hyperinsulinism (EH). […] They were then submitted to a selective arterial calcium stimulation test (SACST), whose results excluded insulinoma. […] Verapamil (80 mg/day) was initiated along with dietary changes, with good response.

[2] = tested on: patients after Roux-en-Y gastric bypass; experiment: Postprandial hyperinsulinemic hypoglycemia after RYGB, case series; type: in vivo, human
Method: Cases report: Case (1) A person developed postprandial hypoglycemic episodes 6 years after Roux-en-Y gastric bypass (RYGB). A mixed meal tolerance test (MMTT, 500 kcal, 20% protein, 20% fat and 60% carbohydrates) was performed, leading to symptomatic postprandial hyperinsulinemic hypoglycemia (PHH) with a nadir of 45 mg/dL at 120 min (insulin of 8 mU/L; C-peptide of 3.21 ng/mL). […] Cases 2 and 3). Two […] women presented hypoglycemia following meals 3 and 5 years after RYGB. MMTT (120 min): glycemia of 34 mg/dL, insulin of 17 mU/L and C-peptide of 6.23 ng/mL and, in the second one, glycemia of 52 mg/dL, insulin of 9 mU/L and C-peptide of 2.7 ng/mL. PT and MRCP were normal in both cases. […] Case 4). A person who underwent RYGB 1.5 years ago reported hypoglycemic episodes in the last 6 months. MMTT: glycemia of 26 mg/dL at 150 min, insulin of 34 mU/L and C-peptide of 6.03 ng/mL. […] They were submitted to distal pancreatectomy and symptoms disappeared after diazoxid and hydrochlorothiazide. Case 5). A person developed hypoglycemia 10 years after RYGB. […] MMTT: glycemia of 43 mg/dL at 120 min, insulin of 100 mU/L and C-peptide of 1.95 ng/mL. […] Antiinsulin antibodies were negative in all cases (Table 1).

[3] = tested on: hypothalamus of young rats; experiment: Chronic ICV treatment with the nitric oxide donor GSNO; type: in vivo, rat
[4] = tested on: T2DM patients; conditions: monotherapy; systematic review and mixed treatment meta-analyses comparison of RCTs; cited from earlier work
Source text: Results: All DPP4 presented a statistically significant change of HbA1c from baseline compared to placebo (alogliptin − 0.797 (95%CI − 0.943 to − 0.651); linagliptin − 0.734 (CI − 0.88 to − 0.588); saxagliptin − 0.593 (CI − 0.811 to − 0.375); sitagliptin -0.788 (CI − 0.954 to − 0.622); vildagliptin −0.60 (CI − 0.80 to − 0.40)). Based on drug acquisition costs, alogliptin monotherapy presented the lowest annual treatment costs and the lowest cost for every 1% HbA1c reduction followed by saxagliptin, linagliptin, sitagliptin and vildagliptin (Table 1).

[5] = tested on: patients with T1DM; experiment: High dose vitamin D for 12 weeks, DKD/albuminuria pilot study; type: in vivo, human
Source text: Methods: 22 patients received doses of 4000 and 10000 IU/day of cholecalciferol for 12 weeks according to patient’s previous VD levels. They were submitted to continuous glucose monitoring system (CGMS), 24-h ABPM and urine albumin-to-creatinine ratio (UACR) before and after VD supplementation.

[6] = tested on: male Wistar rats; type: in vivo, rat
Method: In addition, experimental studies of effects of different doses are important in assessing the safety of a drug. The objective was to evaluate the lipid biomarkers in rats treated with several doses of prednisone. […] The treatment was daily for of 21 days, with weekly measures of body weight, food consumption and calories ingested on days 0, 8 and 16 of treatment. On the last day, the caloric gain was evaluated and then the rats were anesthetized and killed by decapitation to collect the whole blood for serum biochemical analyzes. All data were statistically evaluated with significance of 5%.

[7] = tested on: patients submitted to liver transplantation; type: in vivo, human; conditions: Tacrolimus 95% CI 1.2–32.5, p = 0.029; PDN 95% CI 2.4–21, 8, p < 0.001
Source text: A total of 152 patients were included. […] Comparisons were done with Chi square tests and analysis of independent risk factors with multivariate logistic regression.

[8] = tested on: Normoglycemic adult Wistar rats; conditions: for TOTG glycemia, 120 min: CONT 93.7 ± 4.1
Method: The side effects are primarily determined by dosage and time of use. The objective was to evaluate the effects of increasing doses of PRD on the action of endogenous insulin in Wistar rats. Normoglycemic adult rats weighing 450–510 g were divided into 5 groups, differentiated by their daily treatment (18 days) orally, as the PRD dose used [CONT, PRD1 (0.625 mg/kg), PDR2 (1.250 mg/kg), PRD3 (2.500 mg/kg) and PRD4 ([…])]. Rats received water and food ad libitum, and on 0, 8 and 16 days of treatment the fasting glycemia was measured. On the 17th day, the oral glucose tolerance test (TOTG) was performed, collecting blood for glucose levels at fasting times (− 1 min) and 30, 60 and 120 min after administration of glucose solution. […] The data were statistically analyzed with significance of 5%.

[9] = tested on: male rats with mild diabetes (neonatal streptozotocin); type: in vivo, rat
Method: Background: The prednisone (PRD) is a glucocorticoid that may lead to the development of temporary hyperglycemia. […] The objective was to evaluate the effects of PRD in mild diabetic rats by biochemical and immunological biomarkers. […] The rats were separated into 4 groups: control (C), treated control C + PRD (oral treatment of 1.25 mg/kg/day PRD); diabetic DM (mild diabetes) and treated diabetic DM + PRD (mild diabetes, treatment with same dose as C + PRD group). Untreated groups received vehicle, adjusted volume according to body weight. The treatment daily for 21 days and it were weekly measured the body weight, food and water intake, and glycemia. In the 3rd week of treatment, the oral glucose tolerance test (OGTT) and insulin tolerance test (TTI) were performed, area under the glycemic curve (ASC) values were calculated. In the 21st day, the rats were killed and the blood was collected for serum biochemical, leukogram and immunoglobulin G determinations. All data was statistically evaluated with 5% significance.

[10] = tested on: patient with DM2 and PAH; experiment: Vildagliptin in T2DM with pulmonary arterial hypertension, case report; type: in vivo, human
Source text: The main etiology of pulmonary arterial hypertension (PAH) is idiopathic. In more than one-third of these cases, patients have criteria for metabolic syndrome. Alone, obesity, dyslipidemia and type 2 diabetes mellitus (T2DM) have a direct and indirect relationship in the pathophysiology of PAH. The presence of glucagon-like peptide-1 (GLP1) receptors in different organs of our body gives this incretin several pleiotropic effects, in addition to its already well established role in the treatment of obesity and T2DM. […] Considering this and using a weight-neutral incretin-based therapy, we opted for the use of a DPP4 inhibitor (vildagliptin 50 mg 2×/day) to increase GLP1 levels in a patient with DM2, hypertension, dyslipidemia, obesity grade I (BMI of 30.2 kg/m2) and PAH.

[11] = tested on: patient with metastatic melanoma; experiment: Ipilimumab endocrinological side effects, case report; type: in vivo, human
Source text: In the last couple of years, monoclonal antibodies have emerged as effective therapies for advanced neoplasms. […] CTLA-4 is expressed on the surface of T lymphocytes and transmits an inhibitory signal through its B7-1/2 linker. In blocking the CTLA-4, Ipilimumab promotes an enhancement of T cell activation against neoplasms. During the treatment, the activation of these cells can also be directed to different organs/tissues and affect the skin (dermatitis), gastrointestinal tract (colitis, pancreatitis, hepatitis), lung (pneumonitis) and endocrine glands (thyroiditis, hypophysitis, adrenalitis). […] The patient is a person previously healthy, with a diagnosis of metastatic melanoma. They were subjected to surgical removal of the skin lesion and infraclavicular lymph node, in addition to adjuvant treatment with Ipilimumab. They performed four cycles of this medication and evolved with asthenia, headache, abdominal pain and hyperglycemia, about 3 weeks after the last cycle. They were hospitalized and during the medical investigation the following were detected: low ACTH, low cortisol and hyperprolactinemia—characterizing hypophysitis. Furthermore, there was an elevation of amylase and lipase and hyperglycemia, with levels above 400 mg/dL, requiring insulinization. […]

[12] = 0.625 mg/kg daily orally (PRD1)
[13] = 1.250 mg/kg daily orally (PRD2)

Compound: C[C@H]1O[C@H](O[C@H]2[C@H](O)[C@@H](O)[C@@H](O[C@H]3[C@H](O)[C@@H](O)C(O)O[C@@H]3CO)O[C@@H]2CO)[C@H](O)[C@@H](O)[C@@H]1N[C@H]1C=C(CO)[C@@H](O)[C@H](O)[C@H]1O (some centres unmarked) [Acarbose]
- response of hypoglycemia episodes [1]: no improvement
- clinical response of postprandial hypoglycemia ([2]; Case 5): controlled their symptoms
- clinical response of postprandial hypoglycemia ([2]; Cases 2 and 3): Improvement occurred

Compound: N[C@@H](CCC(=O)N[C@@H](CSN=O)C(=O)NCC(=O)O)C(=O)O [GSNO]
- S-nitrosation of insulin signalling proteins in the hypothalamus [3]: enhance S-NO of IRβ and Akt
- food intake and body weight [3]: increased food intake and body weight

Compound: N[C@@H](CC(=O)N1CCn2c(nnc2C(F)(F)F)C1)Cc1cc(F)c(F)cc1F [Sitagliptin, sitagliptin]
- change of HbA1c from baseline compared to placebo [4]: -0.788

Compound: C=C1CC[C@H](O)C/C1=C/C=C1\CCC[C@]2(C)[C@@H]([C@H](C)CCCC(C)C)CC[C@@H]12 [VD, cholecalciferol]
- patients with DKD at the beginning whose DKD stage improved ([5]; 8/13 patients, 12 weeks): 62%
- DKD prevalence at the end of the study ([5]; cholecalciferol 4000 or 10000 IU/day for 12 weeks, n = 22, 68% before): 32%

Compound: COc1ccc(CCN(C)CCCC(C#N)(c2ccc(OC)c(OC)c2)C(C)C)cc1OC (centres unmarked) [Verapamil]
- response of hypoglycemia episodes [1]: good response

Compound: C[C@]12C=CC(=O)C=C1CC[C@@H]1[C@@H]2C(=O)C[C@@]2(C)[C@H]1CC[C@]2(O)C(=O)CO [prednisone]
- calories ingested, 16th day of treatment ([6]; 5.0 mg/Kg daily (PRD2), n = 7): 93.2 ± 20.4 kcal/day
- calories ingested, day 0 ([6]; 5.0 mg/Kg daily (PRD2), n = 7): 63.7 ± 12.3 kcal/day
- calories ingested, day 8 of treatment ([6]; 5.0 mg/Kg daily (PRD2), n = 7): 69.0 ± 18.1 kcal/day
- body weight, dietary intake, serum triglyceride, total cholesterol, VLDL, LDL, non-HDL cholesterol ([6]; 2.5 and 5.0 mg/Kg, 21 days, p > 0.05): no differences
- independent risk factor for PTDM, OR [7]: 7.2
- TOTG glycemia, time -1 min ([8]; 0.625 mg/kg (PRD1), day 17, CONT 87.7 ± 5.7): 106 ± 5.8 mg/dL
- TOTG glycemia, 120 min ([8]; 0.625 mg/kg (PRD1)): 122.8 ± 15.7 mg/dL
- fasting glycemic increase compared to CONT, day 8 [8, 12]: 30%
- fasting glycemic increase compared to CONT, day 16 [8, 12]: 20%
- glycemia increase of PRD1 compared to PRD4, day 16 ([8]; 0.625 mg/kg vs PRD4): 16%
- TOTG glycemia, 120 min ([8]; 1.250 mg/kg (PRD2)): 120.6 ± 11.6 mg/dL
- fasting glycemic increase compared to CONT, day 8 [8, 13]: 27%
- fasting glycemic increase compared to CONT, day 16 [8, 13]: 9%
- ASCp, increased glycemic load vs CONT, interval 30–60 min ([8]; PRD4): 36%
- glycemia increasing vs C group, all weeks of treatment ([9]; DM + PRD, 1.25 mg/kg/day): 51%
- lymphocytes, increase vs C group ([9]; DM + PRD, day 21): 19%
- neutrophils, increase vs C group ([9]; DM + PRD, day 21): 200%
- total leukocytes, increase vs C group ([9]; DM + PRD, day 21): 30%
- food intake increasing vs C group, 2nd and 3rd week ([9]; DM + PRD, oral 1.25 mg/kg/day): 18%
- high-density lipoprotein, decrease vs C group ([9]; DM + PRD, serum): 8%
- triglycerides, decrease vs C group ([9]; DM + PRD, serum): 21%
- very low-density lipoproteins, decrease vs C group ([9]; DM + PRD, serum): 10%
- OGTT glycemia, 30 min ([9]; DM + PRED group, 3rd week): 275 mg/dL
- OGTT glycemia, 60 min ([9]; DM + PRED group, 3rd week): 258 mg/dL
- OGTT glycemia, 120 min ([9]; DM + PRED group, 3rd week): 161 mg/dL
- body weight decrease, all measures ([9]; DM and DM + PRD groups): about 27%

Compound: N#C[C@@H]1CCCN1C(=O)CNC12CC3CC(CC(O)(C3)C1)C2 [vildagliptin]
- right ventricular systolic pressure (RVSP) ([10]; 50 mg 2×/day, 6 months after its use, 45 mmHg before): 38 mmHg
- fasting glycemia ([10]; 6 months after its use): 111 mg/dL
- A1c ([10]; 6 months after its use, without episodes of hypoglycemia): 6.0%
- A1c ([10]; January/2017): 6.5%
- fasting glycemia ([10]; January/2017): 112 mg/dL
- RVSP ([10]; January/2017, 3 years of follow up): 31 mmHg
- change of HbA1c from baseline compared to placebo [4]: −0.60

Compound: Ipilimumab
- endocrinological side effects ([11]; four cycles, adjuvant treatment, about 3 weeks after the last cycle): hypophysitis and pancreatitis, in addition to secondary diabetes
- hyperglycemia, levels ([11]; requiring insulinization): above 400 mg/dL
